Assays:
ROCK2 = ROCK2 (Homo sapiens, UniProt O75116); assay: Measurement of inhibitory activity against ROCK2 (ADP-Glo, S6K substrate); format: biochemical; settings: read-out: ROCK2 (IC50 class)
Description: ROCK2 was capable of phosphorylating a substrate of polypeptide S6K (KRRRLASLR) by converting ATP to ADP. An ADP-Glo™ reagent was adopted to terminate this reaction and consume the remaining ATP. Moreover, a kinase detection reagent was introduced to ensure that ATP was further converted into a luminescent signal by an Ultra-Glo™ luciferase while convening ADP into ATP, allowing the kinase activity to be positively correlated with the intensity of the luminescent signal.
The inhibitory activity against ROCK2 was determined as follows.
(1) A detection buffer containing 40 mM Tris (pH 7.5), 20 mM MgCl2, 0.1% BSA(w/v) and 50 μM DTT was prepared.
(2) 12 μL of 2.5×0.1 μg/mL ROCK2 solution was added to a 96-well PCR plate.
(3) The 96-well PCR plate was added with 6 μL of a 6× compound solution and pre-incubated at 25° C. for 10 min.
(4) Then the 96-well PCR plate was further added with 12 μL of a mixed solution of a 2.5×37.5 μg/mL S6K substrate solution and a 12.5 μM ATP solution, and incubated at 30° C. for 60 min.
(5) 25 μL of the reaction mixture was transferred to a new 96-well PCR plate, mixed with 25 μL of the ADP-Glo™ reagent uniformly and incubated at 25° C. for 40 min to terminate the reaction.
(6) After the reaction was terminated, 40 μL of the reaction mixture was transferred to another 96-well PCR plate, mixed with 40 μL of the kinase detection reagent uniformly and incubated at 25° C. for 40 min.
(7) The luminescence signal was recorded for the calculation of the inhibitory rate.
The inhibitory activity of the above-prepared compounds against the ROCK2 was measured according to the above process, and the results were shown in Table 1, in which the compounds were ranked according to the IC50 value. Specifically, “+” indicated an IC50 value greater than 500 nM; “++” indicated an IC50 value less than 500 nM and greater than 100 nM; and “+++” indicated an IC50 value less than 100 nM.

[1] = system: phosphorylation of the myosin light chain (T18/S19) of smooth muscle cells A7r5; assay: Detection of myosin light chain phosphorylation by In-Cell Western Blotting; format: cell-based; settings: rat smooth muscle cells A7r5, 1 h incubation in serum-free medium; read-out: A7r5 (IC50 class, inhibition of myosin light chain phosphorylation)
Method: ROCK2 was capable of altering the cytoskeleton by phosphorylating two amino acid sites (T18 and S19) on the myosin light chain. Smooth muscle cells A7r5 of rats were selected, inoculated into a 96 well black plate with a transparent bottom and cultured with DMEM containing 10% FBS. After cultured overnight, the cells were treated by serum starvation for 4 h and then incubated with respective compounds in serum-free medium for 1 h. The phosphorylation level of the myosin light chain was detected by In-Cell Western Blotting using a phspho-MLC-T18/S19-specific antibody and a secondary detection antibody. The untreated cells were used as positive control; the cells without undergoing primary antibody incubation were used as negative control; and total intracellular protein was used as an internal reference. The results were fitted by a non-linear regression curve with varying slope using GraphPad Prism 5.01 software to determine an IC50 value.
The detection of the inhibitory activity of the above-prepared compounds against the phosphorylation of the myosin light chain of smooth muscle cells A7r5 was performed according to the above process. The results were shown in Table 2, where the compounds were ranked according to the IC50 value.

[2] = system: New Zealand rabbits with high intraocular pressure; assay: Animal experiment, high intraocular pressure monocular model; format: in vivo; settings: high IOP rabbits, 50 μL per eye three times a day (0, 3rd, 6th h), IOP at 0-8 h
Method: 10 male New Zealand rabbits were averagely divided into 2 groups and were randomly assigned to respective groups using a computer randomized algorithm involving weight. From 3 days to 1 day before the experiment, all rabbits were required to be trained to adapt to the operation of intraocular pressure (IOP) measurement, and the training was performed 3 times a day with an interval of about 3 h. The intraocular pressure was measured using a TonoVet tonometer, specifically, individual animals were fixed and the eye to be tested was placed at a position perpendicular to the TonoVet tonometer. The IOP should be measured at least 3 times in each operation until the reading became stable. The results from the last three stable measurements (±3 mmHg) were recorded and averaged to be used as the final IOP value. Respective compounds were weighed and dissolved with normal saline to the desired concentration. Before the induction of high intraocular pressure, the intraocular pressure values of both eyes were measured and used as the basic intraocular pressure value. […] The IOP was measured respectively 0, 1, 2, 3, 4, 6 and 8 h after the injection. The results obtained at individual time points were analyzed by student-t test, and the variation curve of IOP over time was analyzed using ANOVA test. […]

[3] = system: New Zealand rabbits with normal intraocular pressure; assay: Animal experiment, normal intraocular pressure model; format: in vivo; settings: normal IOP rabbits, 50 μL to the right eye, IOP at 0-10 h
Method: 24 male New Zealand rabbits were averagely divided into 4 groups, and were randomly assigned to respective groups using a computer randomized algorithm involving weight. From […] before the experiment, all rabbits were required to be trained to adapt to the operation of intraocular pressure (IOP) measurement, and the training was performed 3 times a day with an interval of about 3 h. The intraocular pressure was measured using a TonoVet tonometer, specifically, individual animals were fixed and the eye to be tested was placed at a position perpendicular to the TonoVet tonometer. The IOP should be measured at least 3 times in each operation until the reading became stable. The results from the last three stable measurements (±3 mmHg) were recorded and averaged to be used as the final IOP value. Respective compounds were weighed and dissolved with normal saline to the desired concentration. At the beginning of the experiment, individual compounds of the invention, reference compound K115 or negative control solvent (50 μL) were administered to the right eye of each animal, and the left eye of each animal was treated by normal saline. The IOP was measured at time points Pre (0 h), 1 h, 2 h, 4 h, 6 h, 8 h and 10 h after the administration of drugs, and the data obtained at respective time points was analyzed by student-t test. The curve of IOP over time was analyzed using the ANOVA test, where a P value of less than 0.05 will be considered to be of statistical significance and the data was expressed by mean±standard deviation.

hypertensive model rats = settings: cited from earlier work

Chain of ROCK2 (O75116 whole entry): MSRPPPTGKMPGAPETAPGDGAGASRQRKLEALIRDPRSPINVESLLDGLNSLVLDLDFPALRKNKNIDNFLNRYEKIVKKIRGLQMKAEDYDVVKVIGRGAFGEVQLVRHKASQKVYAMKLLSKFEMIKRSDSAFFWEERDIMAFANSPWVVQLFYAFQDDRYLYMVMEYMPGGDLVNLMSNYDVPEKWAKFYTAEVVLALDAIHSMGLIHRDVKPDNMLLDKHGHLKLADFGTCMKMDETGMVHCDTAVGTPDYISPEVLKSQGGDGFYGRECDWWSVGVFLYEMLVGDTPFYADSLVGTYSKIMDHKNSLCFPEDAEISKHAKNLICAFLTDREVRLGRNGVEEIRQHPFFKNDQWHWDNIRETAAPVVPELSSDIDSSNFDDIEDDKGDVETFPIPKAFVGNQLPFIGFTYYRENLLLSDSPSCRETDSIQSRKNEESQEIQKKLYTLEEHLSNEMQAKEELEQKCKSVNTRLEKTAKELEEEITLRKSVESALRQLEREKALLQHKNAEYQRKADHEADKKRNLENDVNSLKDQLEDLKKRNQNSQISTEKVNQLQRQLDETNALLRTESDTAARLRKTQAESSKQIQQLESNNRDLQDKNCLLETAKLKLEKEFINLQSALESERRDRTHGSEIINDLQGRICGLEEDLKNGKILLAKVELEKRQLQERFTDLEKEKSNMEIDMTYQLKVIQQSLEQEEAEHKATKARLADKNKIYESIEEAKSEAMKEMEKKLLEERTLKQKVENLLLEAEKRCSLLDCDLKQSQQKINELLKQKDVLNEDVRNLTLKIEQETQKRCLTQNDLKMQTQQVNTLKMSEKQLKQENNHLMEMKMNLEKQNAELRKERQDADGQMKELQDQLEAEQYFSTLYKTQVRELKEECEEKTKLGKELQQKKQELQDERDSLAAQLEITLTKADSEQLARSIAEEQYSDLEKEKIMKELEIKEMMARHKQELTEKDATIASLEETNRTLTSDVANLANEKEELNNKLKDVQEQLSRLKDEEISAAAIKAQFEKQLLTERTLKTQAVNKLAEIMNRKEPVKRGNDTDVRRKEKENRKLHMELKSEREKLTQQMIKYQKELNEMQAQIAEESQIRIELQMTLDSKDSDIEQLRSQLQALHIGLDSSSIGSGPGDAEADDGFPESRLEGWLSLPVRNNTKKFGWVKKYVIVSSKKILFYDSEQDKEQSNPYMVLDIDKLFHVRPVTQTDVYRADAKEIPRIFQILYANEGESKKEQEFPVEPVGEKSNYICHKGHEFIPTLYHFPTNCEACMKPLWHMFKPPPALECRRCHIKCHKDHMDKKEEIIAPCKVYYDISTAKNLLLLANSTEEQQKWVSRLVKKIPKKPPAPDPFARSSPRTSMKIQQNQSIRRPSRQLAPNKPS

| IC50 (ROCK2) [nM] | IC50 [1] [nM] | Compound | further results |
| --- | --- | --- | --- |
| < 100 | 250 to 1000 | CN1CC[C@@H]([C@H](NC(=O)c2ccc3cnccc3c2)c2ccccc2)C1 [Compound 13, N—((S)—((R)-1-methylpyrrolidin-3-yl)(phenyl)methyl)isoquinoline-6-carboxamide] | – |
| < 100 | < 250 | NC[C@@H](NC(=O)c1ccc2cnccc2c1)c1cccc(Br)c1 [Compound 2, (S)—N-(2-amino-1-(3-bromophenyl)ethyl)isoquinoline-6-carboxamide] | – |
| 100 to 500 | – | O=C(N[C@H](c1ccccc1)[C@H]1CCNC1)c1ccc2cnccc2c1 [Compound 14a, N—((S)-phenyl-((S)-pyrrolidin-3-yl)methyl)isoquinoline-6-carboxamide] | – |
| < 100 | < 250 | NCCC(NC(=O)c1ccc2cnccc2c1)c1cccc(Cl)c1 (stereo not shown) [Compound 6, N-(3-amino-1-(3-chlorophenyl)propyl)isoquinoline-6-carboxamide] | – |
| < 100 | 250 to 1000 | O=C(N[C@H](c1ccccc1)[C@@H]1CCNC1)c1ccc2cnccc2c1 [Compound 11a, N—((S)-phenyl-((R)-pyrrolidin-3-yl)methyl)isoquinoline-6-carboxamide] | effect on alleviating high intraocular pressure [2]: a good effect on alleviating high intraocular pressure; acting time compared to K115 [3]: a longer acting time; intraocular pressure-reducing activity compared to K115 [3]: a similar intraocular pressure-reducing activity |
| – | – | C[C@@H](N)[C@H]1CC[C@H](C(=O)Nc2ccncc2)CC1 [Compound Y-27632] | blood pressure of control rats (hypertensive model rats; control rats): fails to show significant effects on the blood pressure; blood pressure of hypertensive model rats (hypertensive model rats; spontaneous, renal and deoxycorticosterone acetate-induced hypertension): significantly lowering the blood pressure |
| < 100 | 250 to 1000 | CN(C)C[C@@H](NC(=O)c1ccc2cnccc2c1)c1ccccc1 [Compound 5, N-((1S)-2-(dimethylamino)-1-phenyl-ethyl)isoquinoline-6-formamide] | acting time compared to K115 [3]: a longer acting time; intraocular pressure-reducing activity compared to K115 [3]: a similar intraocular pressure-reducing activity |
| < 100 | 250 to 1000 | NC[C@@H](NC(=O)c1ccc2cnccc2c1)c1ccccc1 [Compound 1, N—((S)-2-amino-1-phenyl-ethyl)isoquinoline-6-carboxamide] | – |
| < 100 | – | CN1CC[C@@H]([C@@H](NC(=O)c2ccc3cnccc3c2)c2ccccc2)C1 [Compound 12, N—((R)—((R)-1-methylpyrrolidin-3-yl)(phenyl)methyl)isoquinoline-6-carboxamide] | – |
| < 100 | 250 to 1000 | CCOC(=O)c1cc(-c2cccc(C(CCN)NC(=O)c3ccc4cnccc4c3)c2)cs1 (stereo not shown) [Compound 7, ethyl 4-(3-(3-amino-1-(isoquinoline-6-formamide)propyl)phenyl)thiophene-2-carboxylate] | – |
| < 100 | 250 to 1000 | COc1cccc([C@@H](CN(C)C)NC(=O)c2ccc3cnccc3c2)c1 [Compound 15, N—((S)-2-(dimethylamino)-1-(3-methoxyphenyl)ethyl)isoquinoline-6-carboxamide] | – |
| 100 to 500 | > 1000 | Cc1ccc(C(=O)OCc2ccc([C@@H](CN)NC(=O)c3ccc4cnccc4c3)cc2)c(C)c1 [Compound 4, (S)-4-(2-amino-1-(isoquinoline-6-formamido)ethyl)benzyl 2,4-dimethylbenzoate] | – |
| < 100 | 250 to 1000 | O=C(NC(c1ccccc1)C1CNC1)c1ccc2cnccc2c1 (stereo not shown) [Compound 9, N-(azetidin-3-yl-benzyl)isoquinoline-6-carboxamide] | – |
| < 100 | > 1000 | CN(C)CCC(NC(=O)c1ccc2cnccc2c1)c1ccccc1 (stereo not shown) [Compound 8, N-(3-(dimethylamino)-1-phenyl-propyl)isoquinoline-6-formamide] | – |
| < 100 | 250 to 1000 | CN1CC(C(NC(=O)c2ccc3cnccc3c2)c2ccccc2)C1 (stereo not shown) [Compound 10, N-((1-methylazetidin-3-yl)-benzyl)isoquinoline-6-carboxamide] | – |
| < 100 | – | O=C(N[C@@H](c1ccccc1)[C@H]1CCNC1)c1ccc2cnccc2c1 [Compound 14b, N—((R)-phenyl-((S)-pyrrolidin-3-yl)methyl)isoquinoline-6-carboxamide] | – |
| – | 250 to 1000 | CN(C)C[C@@H](NC(=O)c1ccc2cnccc2c1)c1cccc(Cl)c1 [Compound 16, N—((S)-2-(dimethylamino)-1-(3-chlorophenyl)ethyl)isoquinoline-6-carboxamide] | – |
| 100 to 500 | – | NC[C@@H](NC(=O)c1ccc2cnccc2c1)c1ccc(CO)cc1 [Compound 3, (S)—N-(2-amino-1-(4-(hydroxymethyl)phenyl)ethyl)isoquinoline-6-formamide] | – |
| < 100 | – | O=C(N[C@@H](c1ccccc1)[C@@H]1CCNC1)c1ccc2cnccc2c1 [Compound 11b, N—((R)-phenyl-((R)-pyrrolidin-3-yl)methyl)isoquinoline-6-carboxamide] | – |
